In patent publication US20250179088A9 (ZYMEWORKS BC INC., priority 2020, published 2025):

Columns and labels:
TLR7 = molecular target: T1, TLR7 (Homo sapiens, UniProt Q9NYK1); experiment: Reporter gene assay, HEK-Blue TLR7 reporter cells (SEAP)
T1 sequence (Q9NYK1 27-1049): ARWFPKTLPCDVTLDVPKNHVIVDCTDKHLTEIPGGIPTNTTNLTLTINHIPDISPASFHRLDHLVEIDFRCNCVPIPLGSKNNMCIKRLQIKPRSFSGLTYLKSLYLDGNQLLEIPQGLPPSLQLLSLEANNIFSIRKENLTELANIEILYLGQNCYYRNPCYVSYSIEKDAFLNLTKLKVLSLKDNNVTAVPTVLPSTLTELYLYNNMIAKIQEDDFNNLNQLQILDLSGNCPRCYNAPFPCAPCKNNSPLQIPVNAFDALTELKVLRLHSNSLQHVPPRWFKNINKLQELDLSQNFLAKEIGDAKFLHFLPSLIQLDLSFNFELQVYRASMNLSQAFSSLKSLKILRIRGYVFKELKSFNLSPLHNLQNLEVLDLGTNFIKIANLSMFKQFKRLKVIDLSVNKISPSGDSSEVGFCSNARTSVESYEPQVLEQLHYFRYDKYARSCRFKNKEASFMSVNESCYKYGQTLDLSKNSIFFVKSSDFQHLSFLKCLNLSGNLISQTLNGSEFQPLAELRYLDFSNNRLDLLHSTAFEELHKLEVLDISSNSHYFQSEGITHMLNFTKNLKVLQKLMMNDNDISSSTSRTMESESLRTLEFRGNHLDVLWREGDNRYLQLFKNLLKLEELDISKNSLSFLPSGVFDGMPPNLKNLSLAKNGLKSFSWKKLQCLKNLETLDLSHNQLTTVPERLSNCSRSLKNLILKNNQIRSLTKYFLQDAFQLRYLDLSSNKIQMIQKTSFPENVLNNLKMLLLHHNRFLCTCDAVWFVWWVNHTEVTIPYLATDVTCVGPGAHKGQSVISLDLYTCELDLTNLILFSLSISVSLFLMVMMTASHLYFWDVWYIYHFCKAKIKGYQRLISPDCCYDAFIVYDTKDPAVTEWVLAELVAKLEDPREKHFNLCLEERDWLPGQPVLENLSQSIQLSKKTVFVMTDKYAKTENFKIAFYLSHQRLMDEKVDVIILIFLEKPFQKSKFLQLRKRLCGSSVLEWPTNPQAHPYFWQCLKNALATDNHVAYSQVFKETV
Description: (§1) 3×10^4 HEK-Blue™ TLR7 or 3×10^4 TLR8 reporter cells (InvivoGen, San Diego, CA) were treated with titrated (4-fold) amounts of test compound. […] Cells were incubated overnight at 37° C. and 5% CO2, then absorbance (620 and 655 nm) was read on a Synergy™ H1 microplate reader.

PBMCs [1] = experiment: PBMC assay, IL-6 release (HTRF); assay type: cell-based; details: PBMCs from healthy donors, overnight, IL-6 induction by HTRF, average of quadruplicate
TLR8 = molecular target: T2, TLR8 (Homo sapiens, UniProt Q9NR97); experiment: Reporter gene assay, HEK-Blue TLR8 reporter cells (SEAP)
T2 sequence (Q9NR97 27-1041): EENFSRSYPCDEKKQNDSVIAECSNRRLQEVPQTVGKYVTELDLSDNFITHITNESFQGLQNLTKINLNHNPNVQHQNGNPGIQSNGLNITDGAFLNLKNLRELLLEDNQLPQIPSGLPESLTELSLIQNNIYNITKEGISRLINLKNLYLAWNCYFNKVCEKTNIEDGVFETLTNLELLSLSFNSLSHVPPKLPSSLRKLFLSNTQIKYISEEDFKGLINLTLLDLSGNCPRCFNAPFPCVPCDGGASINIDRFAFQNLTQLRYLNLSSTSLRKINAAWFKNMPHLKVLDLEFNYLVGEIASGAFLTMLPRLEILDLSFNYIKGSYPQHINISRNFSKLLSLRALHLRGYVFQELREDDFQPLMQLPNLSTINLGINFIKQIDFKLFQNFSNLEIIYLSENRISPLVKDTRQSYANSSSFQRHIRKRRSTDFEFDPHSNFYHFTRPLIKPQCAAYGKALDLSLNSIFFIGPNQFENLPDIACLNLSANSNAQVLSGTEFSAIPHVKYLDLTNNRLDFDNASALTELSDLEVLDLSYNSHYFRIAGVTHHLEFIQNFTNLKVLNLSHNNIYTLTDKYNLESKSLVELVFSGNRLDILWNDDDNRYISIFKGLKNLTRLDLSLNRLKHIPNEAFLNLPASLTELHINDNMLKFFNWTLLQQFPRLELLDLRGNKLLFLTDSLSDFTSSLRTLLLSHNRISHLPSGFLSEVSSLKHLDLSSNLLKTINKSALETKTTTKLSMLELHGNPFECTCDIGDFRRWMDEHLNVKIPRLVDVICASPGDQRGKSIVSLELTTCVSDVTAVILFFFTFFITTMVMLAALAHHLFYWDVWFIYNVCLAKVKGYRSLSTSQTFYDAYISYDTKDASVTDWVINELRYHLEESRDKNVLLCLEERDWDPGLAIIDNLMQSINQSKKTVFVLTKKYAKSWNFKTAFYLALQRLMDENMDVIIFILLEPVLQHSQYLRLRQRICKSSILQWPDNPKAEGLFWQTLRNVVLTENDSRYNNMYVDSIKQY
Description: as §1

PBMCs [2] = experiment: PBMC assay, TNF-α release (HTRF); assay type: cell-based; details: PBMCs from healthy donors, overnight, TNF-α induction by HTRF
Description: Whole peripheral blood was obtained from healthy donors. PBMCs were isolated from peripheral blood by density gradient centrifugation. […] Technologies, Vancouver, Canada) and centrifuged at 1200×G for 10 minutes in SepMate™ tubes (#15450, […] Technologies). The plasma layer containing PBMCs was poured into a new tube and washed twice. Isolated PBMCs were either used fresh or thawed from previously frozen. 1×10^5 PBMCs were cultured with titrating concentrations of compounds of Formula I overnight followed by assaying for cytokines by homogeneous time resolved fluorescence (HTRF). Compounds were dissolved in DMSO.

CCCCc1nc2c(N)nc3ccsc3c2n1Cc1ncc(CNCC(C)(C)O)s1 [Compound 238, 1-(((2-((4-amino-2-butyl-1H-imidazo[4,5-d]thieno[3,2-b]pyridin-1-yl)methyl)thiazol-5-yl)methyl)amino)-2-methylpropan-2-ol]
EC50 (TLR7): 420 nM
EC50 (PBMCs [1]): > 1000 nM
EC50 (TLR8): > 1000 nM

CCCCc1nc2c(N)nc3ccsc3c2n1Cc1ccccc1CNCc1ccc(CO)cc1 [Compound 224, (4-(((2-((4-amino-2-butyl-1H-imidazo[4,5-d]thieno[3,2-b]pyridin-1-yl)methyl)benzyl)amino)methyl)phenyl)methanol]
EC50 (TLR7): > 1000 nM
EC50 (PBMCs [1]): > 1000 nM
EC50 (TLR8): > 1000 nM

CCCCc1nc2c(N)nc3ccsc3c2n1CCCCCNCC(C)(C)N1CCOCC1 [Compound 177, 2-butyl-1-(5-((2-methyl-2-morpholinopropyl)amino)pentyl)-1H-imidazo[4,5-d]thieno [3,2-b]pyridin-4-amine]
EC50 (TLR7): 24 nM
EC50 (PBMCs [1]): 270 nM
EC50 (TLR8): 570 nM

CCCCc1nc2c(N)nc3ccsc3c2n1Cc1ccc(CN2CCCCC2)cc1 [Compound 151, 2-butyl-1-(4-(piperidin-1-ylmethyl)benzyl)-1H-imidazo[4,5-d]thieno[3,2-b]pyridin-4-amine]
EC50 (TLR7): 3.8 nM
EC50 (PBMCs [1]): 20 nM
EC50 (TLR8): > 1000 nM

CCCCc1nc2c(N)nc3ccsc3c2n1Cc1ccccc1CN(CC)CC [Compound 221, 2-butyl-1-(2-((diethylamino)methyl)benzyl)-1H-imidazo[4,5-d]thieno[3,2-b]pyridin-4-amine]
EC50 (TLR7): > 1000 nM
EC50 (PBMCs [1]): > 1000 nM
EC50 (TLR8): > 1000 nM

CCCCc1nc2c(N)nc3ccsc3c2n1Cc1ccccc1CNCCCCCO [Compound 223]
EC50 (TLR7): > 1000 nM
EC50 (PBMCs [1]): > 1000 nM
EC50 (TLR8): > 1000 nM

CCCCc1nc2c(N)nc3ccsc3c2n1Cc1ccccc1CNCc1cc[nH]c1 [Compound 220, 1-(2-((((1H-pyrrol-3-yl)methyl)amino)methyl)benzyl)-2-butyl-1H-imidazo[4,5-d]thieno [3,2-b]pyridin-4-amine]
EC50 (TLR7): > 1000 nM
EC50 (PBMCs [1]): > 1000 nM
EC50 (TLR8): > 1000 nM

CCCCc1nc2c(N)nc3ccsc3c2n1Cc1ccc(CNC2CCCN(C(=O)OC(C)(C)C)C2)cc1 (stereo not shown) [Compound 262, tert-butyl 3-((4-((4-amino-2-butyl-1H-imidazo[4,5-d]thieno[3,2-b]pyridin-1-yl)methyl)benzyl)amino)piperidine-1-carboxylate]
EC50 (TLR7): 95 nM
EC50 (PBMCs [1]): > 1000 nM
EC50 (TLR8): > 1000 nM

CCCCc1nc2c(N)nc3ccsc3c2n1Cc1ccc(CNCC2CCN(C(=O)OC(C)(C)C)CC2)cc1 [Compound 264, tert-butyl 4-(((4-((4-amino-2-butyl-1H-imidazo[4,5-d]thieno[3,2-b]pyridin-1-yl)methyl)benzyl)amino)methyl)piperidine-1-carboxylate]
EC50 (TLR7): 83 nM
EC50 (PBMCs [1]): 153 nM
EC50 (TLR8): > 1000 nM

CCCCc1nc2c(N)nc3ccsc3c2n1Cc1nc(CN(CC)CC)cs1 [Compound 233, 2-butyl-1-((4-((diethylamino)methyl)thiazol-2-yl)methyl)-1H-imidazo[4,5-d]thieno[3,2-b]pyridin-4-amine]
EC50 (TLR7): 140 nM
EC50 (PBMCs [1]): 630 nM
EC50 (TLR8): 880 nM

CCCCc1nc2c(N)nc3ccsc3c2n1Cc1cccc(CNN)c1 [Compound 206, 2-butyl-1-(3-(hydrazineylmethyl)benzyl)-1H-imidazo[4,5-d]thieno[3,2-b]pyridin-4-amine]
EC50 (TLR7): 280 nM
EC50 (PBMCs [1]): > 1000 nM
EC50 (TLR8): > 1000 nM

CCCCc1nc2c(N)nc3ccsc3c2n1Cc1ccccc1CNCC(C)(C)O [Compound 225, 1-((2-((4-amino-2-butyl-1H-imidazo[4,5-d]thieno[3,2-b]pyridin-1-yl)methyl)benzyl)amino)-2-methylpropan-2-ol]
EC50 (TLR7): > 1000 nM
EC50 (PBMCs [1]): > 1000 nM
EC50 (TLR8): > 1000 nM

CCCCc1nc2c(N)nc3ccsc3c2n1Cc1cccc(CN2CCN(CCN3CCOCC3)CC2)c1 [Compound 200, 2-butyl-1-(3-((4-(2-morpholinoethyl)piperazin-1-yl)methyl)benzyl)-1H-imidazo[4,5-d]thieno[3,2-b]pyridin-4-amine]
EC50 (TLR7): 550 nM
EC50 (PBMCs [1]): > 1000 nM
EC50 (TLR8): > 1000 nM

CCCCc1nc2c(N)nc3ccsc3c2n1Cc1nc(CNCCCCCO)cs1 [Compound 236, 5-(((2-((4-amino-2-butyl-1H-imidazo[4,5-d]thieno[3,2-b]pyridin-1-yl)methyl)thiazol-4-yl)methyl)amino)pentan-1-ol]
EC50 (TLR7): 310 nM
EC50 (PBMCs [1]): 310 nM
EC50 (TLR8): 73 nM
EC50 (PBMCs [2]): > 1000 nM
